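Step 1: Grow cells in 96-well plates. Step 2: Expose to compound for 48 hours at 5 concentrations. Step 3: Interpolate endpoints linearly; if unreached, use highest concentration. The concentration for 50% growth inhibition is given as GI50. TGI: concentration producing complete growth inhibition.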
What was measured:
Test in all cases: NCI anticancer screen, dose series, 48 h
K-562 leukemia = tested on: K-562 leukemia
SNB-75 CNS = tested on: SNB-75 CNS
SK-MEL-5 melanoma = tested on: SK-MEL-5 melanoma
SF-539 CNS = tested on: SF-539 CNS
A549 NSCLC = tested on: A549 NSCLC
NCI-H226 lung = tested on: NCI-H226 lung
KM12 colon = tested on: KM12 colon
MOLT-4 leukemia = tested on: MOLT-4 leukemia
MCF7 breast = tested on: MCF7 breast
UACC-62 melanoma = tested on: UACC-62 melanoma

| SMILES | GI50 (K-562 leukemia) | TGI (K-562 leukemia) | GI50 (SNB-75 CNS) | TGI (SNB-75 CNS) | GI50 (SK-MEL-5 melanoma) | TGI (SK-MEL-5 melanoma) | GI50 (SF-539 CNS) | TGI (SF-539 CNS) | GI50 (A549 NSCLC) | TGI (A549 NSCLC) | GI50 (NCI-H226 lung) | TGI (NCI-H226 lung) | GI50 (KM12 colon) | TGI (KM12 colon) | GI50 (MOLT-4 leukemia) | TGI (MOLT-4 leukemia) | GI50 (MCF7 breast) | TGI (MCF7 breast) | GI50 (UACC-62 melanoma) | TGI (UACC-62 melanoma) |
| --- | --- | --- | --- | --- | --- | --- | --- | --- | --- | --- | --- | --- | --- | --- | --- | --- | --- | --- | --- | --- |
| CC1SC(c2ccc(Cl)cc2Cl)N(NC(=O)C(O)c2ccccc2)C1=O (stereo not given) | 39.7 µM | > 100 µM | 32.1 µM | > 100 µM | 58.6 µM | > 100 µM | > 100 µM | > 100 µM | 33.9 µM | > 100 µM | 44.1 µM | > 100 µM | 51.2 µM | > 100 µM | 34.5 µM | > 100 µM | 57 µM | > 100 µM | 24.2 µM | > 100 µM |
| N#Cc1cccc(C2C3=C(COC3=O)N(CCO)c3cc4c(cc32)OCO4)c1 (stereo not given) | 0.294 µM | > 50 µM | 0.745 µM | 2.76 µM | 1.07 µM | > 50 µM | 1.53 µM | 8.52 µM | 6.17 µM | > 50 µM | > 50 µM | > 50 µM | 1.74 µM | > 50 µM | 3.64 µM | > 50 µM | 0.942 µM | > 50 µM | 1.66 µM | > 50 µM |
| O=C(Nc1cccc(C(F)(F)F)c1)Oc1ccc(Cl)c2cccnc12 | 1.02 µM | > 100 µM | 2.59 µM | 17.8 µM | 1.31 µM | 2.88 µM | 1.85 µM | 7.92 µM | 2.43 µM | 9.03 µM | 2.25 µM | 5.75 µM | 3.94 µM | 13.4 µM | 0.86 µM | 22.8 µM | 1.46 µM | 6.77 µM | 1.15 µM | 3.57 µM |
| Nc1ccc(/C=C/c2ccc3cccnc3c2)cc1 |  | > 100 µM |  | > 100 µM |  | > 100 µM |  | > 100 µM |  | > 100 µM |  | > 100 µM |  | > 100 µM |  | > 100 µM |  | > 100 µM |  | > 100 µM |
| C[C@@H]1CC[C@@]2(NC1)O[C@H]1C[C@H]3[C@@H]4CC[C@H]5C[C@@H](O)CC[C@]5(C)[C@H]4CC[C@]3(C)[C@H]1[C@@H]2C |  | > 100 µM |  | > 100 µM |  | > 100 µM |  | 77.6 µM |  | > 100 µM |  | > 100 µM |  | 66.8 µM |  | > 100 µM |  | > 100 µM |  | > 100 µM |
| C=C(C)[C@@H]1CC[C@]2(C(=O)NS(=O)(=O)c3ccccc3)CC[C@]3(C)[C@H](CC[C@@H]4[C@@]5(C)CC[C@H](OC(=O)NS(=O)(=O)c6ccccc6)C(C)(C)[C@@H]5CC[C@]43C)[C@@H]12 | 1.41 µM | 17.3 µM | 3.44 µM | 18.5 µM | 1.48 µM | 2.98 µM | 1.27 µM | 2.59 µM | 3.24 µM | 21.8 µM | 2.38 µM | 13.8 µM | 1.34 µM | 2.96 µM | 2.58 µM | 24 µM | 2.93 µM | 10.8 µM | 1.32 µM | 2.92 µM |
| CC1(C)CCC[C@]2(C)c3ccccc3C(=O)CC12 (stereo not given in full) | 41.4 µM | > 100 µM | 34.6 µM | > 100 µM | 18 µM | 46.4 µM | 27.1 µM | 75.7 µM | 54.1 µM | > 100 µM | 22.9 µM | > 100 µM | 23.8 µM | > 100 µM | 75.8 µM | > 100 µM | 38.2 µM | > 100 µM | 18.2 µM | > 100 µM |
| CC[C@H](C)[C@H](NC(=O)c1cccn1C)C(=O)N(C)[C@H](C[C@@H](OC(C)=O)c1nc(C(=O)N[C@@H](Cc2ccccc2)C[C@H](C)C(=O)OC)cs1)C(C)C | 0.177 µM | > 33.3 µM | 0.0929 µM | > 33.3 µM | 0.103 µM | 0.736 µM | 0.203 µM | 1.22 µM | 0.661 µM | > 33.3 µM | 1.17 µM | > 33.3 µM | 0.106 µM | > 33.3 µM | 0.429 µM | > 33.3 µM | 0.0807 µM | > 33.3 µM | 0.0569 µM | > 26 µM |
| COc1cc2nccc(Oc3ccc(NC(=O)c4cn(C(C)C)c(=O)n(-c5ccc(F)cc5)c4=O)cc3F)c2cc1OC | 0.0442 µM | > 100 µM | 1.03 µM | > 21.9 µM | > 100 µM | > 100 µM | 1.6 µM | 3.38 µM | > 26 µM | > 100 µM | 6.76 µM | > 21.8 µM | 0.0453 µM | > 100 µM | > 100 µM | > 100 µM | > 100 µM | > 100 µM | 6.03 µM | > 100 µM |
